Columns and labels:
Type in all cases: in vivo, rat
[1] = tested on: muscles of the operated hindlimb; assay: Wet weight of hindlimb muscles after sciatic nerve severing and microsurgical repair; details: for Average Wet Weight (g) of Muscles: 12 mg/kg in 5% DMSO, bath + i.m. twice weekly; for % Weight (+)gain or (-)loss Treated vs. Control / % Weight (+) gain (-) loss Treated vs. control / % Weight (+)gain or (-)loss: muscle wet weight; for % Weight (+) gain (-) loss Treated vs. control: One Week; for % Weight (+)gain or (-)loss: Three Month, treated vs. control
Experimental: (§1) lwenty raty art anenthetizve with sel rompun (0.5 cc total volume). The right sciatic nerve is exposed and severed with microneuroscissors, and subsequently repaired microsurgically with 6-8 circumferential microsutures using 10-0 nylon. Immediately following surgery the treated animals receive 12 mg/kg Ac leupeptin in 5% DMSO (dimethylsulphoxide) as a bath on their sciatic nerve, 0.25 cc. total volume. Then the treated animals are injected intramuscularly in right hindlimb with 0.25 cc of a solution containing 12 mg/kg Ac leupeptin in 5% DMSO. Control animals receive the same surgical treatment, but the bath and intramuscular injection consist only of the solvent and 5% DMSO.
(§2) Thereafter, treated animals are injected twice weekly in the operated hindlimb with 12 mg/kg Ac leupeptin in 5% DMSO (0.25 cc total volume) for periods of 1 week, 1 month, two months, three months - and six months. Control animals are injected with 0.25 cc of 5% DMSO twice weekly in the operated hindlimb for the same time period.
(§3) Two treated and two control animals are assigned to each of the stated time periods.
All animals are sacrified by an overdose of pentobarbital, 1.0 cc total volume. The gastro- cnemius, soleus and extensor digitorum longus muscles of the operated hindlimb are execised from origin to insertion, weighed and then frozen in isopentane in liquid nitrogen […]. For light microscopy, cryostat sections are cut, placed on slides and stained with hematoxylin and eosin and/or ATPase histochemistry at pH's of 4.3 and 10.4. Myofiber diameters are determined by photographing hematoxylin and eosin sections at a constant magnification in the light microscope.

[2] = tested on: sciatic nerve; assay: Counts of myelinated axons 5.0 mm proximal to repair by light microscopy; details: for Counts of Myelinated Axons - 5.0mm. Proximal to Repair by Light Microscopy 1.0 X 10^5 µm^2 - of Area: 12 mg/kg in 5% DMSO, bath + i.m. twice weekly; for % Difference: treated vs. control
Experimental: as §1, §2, §3
(§4) A ten mm. portion of the repaired sciatic nerve is excised from each animal. This is fixed in 3.0% glutaraldehyde in 0.1 M sodium cacodylate, pH 7.3, overnight for electron microscopy. After post-fixation in 1.0% osmium tetroxide, ethanol dehydration and embedding in Polybed 812, both thick (1 micron) and thin (500 A°) transverse sections are cut on a ultramicrotome. Portions of the excised muscles receive similar preparation for electron microscopy.
(§5) Thick sections of the sciatic nerve are placed on microscope slots stained with toluidine blue and photographed at a constant magnification in the light microscope. Thin sections of both nerve and muscles are placed on 300 mesh copper grid calm, stained with uranyl acetate and lead citrate and photographed using a Hitachi HU-12 electron microscope.

[3] = tested on: sciatic nerve; assay: Counts of myelinated and unmyelinated axons 5.0 mm distal to repair by electron microscopy; details: 5.0mm. Distal to Repair, Electron Microscopy, 12 mg/kg in 5% DMSO, bath + i.m. twice weekly
Experimental: as §1, §2, §3, §4, §5

With CC(=O)N[C@@H](CC(C)C)C(=O)N[C@@H](CC(C)C)C(=O)N[C@H](C=O)CCCNC(=N)N [Ac leupeptin, acetyl-L-leu-L-leu-L-argininal] the “Average Wet Weight (g) of Muscles” value ([1]; One Month Treated, E.D.L.) was 0.198 g, the “Average Wet Weight (g) of Muscles” value ([1]; One Month Treated, GASTROCNEMIUS) was “.954 g” and the “Average Wet Weight (g) of Muscles” value ([1]; One Month Treated, SOLEUS) was “.379 g”. For the same compound, the “Average Wet Weight (g) of Muscles” value ([1]; One Week Treated, E.D.L.) was 0.116 g, the “Average Wet Weight (g) of Muscles” value ([1]; One Week Treated, GASTROCNEMIUS) was 2.379 g and the “Average Wet Weight (g) of Muscles” value ([1]; One Week Treated, SOLEUS) was 0.335 g. For the same compound, the “Average Wet Weight (g) of Muscles” value ([1]; Six Month Treated, E.D.L.) was 0.163 g, the “Average Wet Weight (g) of Muscles” value ([1]; Six Month Treated, GASTROCNEMIUS) was 1.577 g and the “Average Wet Weight (g) of Muscles” value ([1]; Six Month Treated, SOLEUS) was 0.306 g. For the same compound, the “Average Wet Weight (g) of Muscles” value ([1]; Three Month Treated, E.D.L.) was 0.178 g, the “Average Wet Weight (g) of Muscles” value ([1]; Three Month Treated, GASTROCNEMIUS) was 1.563 g and the “Average Wet Weight (g) of Muscles” value ([1]; Three Month Treated, SOLEUS) was 0.248 g. For the same compound, the “Average Wet Weight (g) of Muscles” value ([1]; Two Months Treated, E.D.L.) was 0.202 g, the “Average Wet Weight (g) of Muscles” value ([1]; Two Months Treated, GASTROCNEMIUS) was 1.371 g and the “Average Wet Weight (g) of Muscles” value ([1]; Two Months Treated, SOLEUS) was 0.425 g. For the same compound, the “average wet weight in grams in treated muscles” value ([1]; all time periods and muscles, vs. control) was “significantly greater than control”, the “% Weight (+)gain or (-)loss Treated vs. Control” value ([1]; One Month, E.D.L.) was “+62%” and the “% Weight (+)gain or (-)loss Treated vs. Control” value ([1]; One Month, GASTROCNEMIUS) was “+30%”. The “% Weight (+)gain or (-)loss Treated vs. Control” value ([1]; One Month, SOLEUS) was “+19%”, the “% Weight (+) gain (-) loss Treated vs. control” value ([1]; E.D.L.) was “+18%” and the “% Weight (+) gain (-) loss Treated vs. control” value ([1]; GASTROCNEMIUS) was “+37%”. The “% Weight (+) gain (-) loss Treated vs. control” value ([1]; SOLEUS) was “+13%”, the “% Weight (+)gain or (-)loss Treated vs. Control” value ([1]; Six Month, E.D.L.) was “+18%” and the “% Weight (+)gain or (-)loss Treated vs. Control” value ([1]; Six Month, GASTROCNEMIUS) was “+15%”. For the same compound, the “% Weight (+)gain or (-)loss Treated vs. Control” value ([1]; Six Month, SOLEUS) was “+23%”, the “% Weight (+)gain or (-)loss” value ([1]; E.D.L.) was “+13%” and the “% Weight (+)gain or (-)loss” value ([1]; GASTROCNEMIUS) was “+18%”. The “% Weight (+)gain or (-)loss” value ([1]; SOLEUS) was “+9%”, the “% Weight (+)gain or (-)loss Treated vs. Control” value ([1]; Two Months, E.D.L.) was “+43%” and the “% Weight (+)gain or (-)loss Treated vs. Control” value ([1]; Two Months, GASTROCNEMIUS) was “+14%”. The “% Weight (+)gain or (-)loss Treated vs. Control” value ([1]; Two Months, SOLEUS) was “+9%”, the “Counts of Myelinated Axons - 5.0mm. Proximal to Repair by Light Microscopy 1.0 X 10^5 µm^2 - of Area” value (“Counts of Myelinated Axons” for short) ([2]; One Month Treated) was 1162 1.0 X 10^5 µm^2 - of Area and the “Counts of Myelinated Axons” value ([2]; One Week Treated) was 1089 1.0 X 10^5 µm^2 - of Area. For the same compound, the “Counts of Myelinated Axons” value ([2]; Six Month Treated) was 1748 1.0 X 10^5 µm^2 - of Area, the “Counts of Myelinated Axons” value ([2]; Three Month Treated) was 2200 1.0 X 10^5 µm^2 - of Area and the “Counts of Myelinated Axons” value ([2]; Two Month Treated) was 1111 1.0 X 10^5 µm^2 - of Area. The “% Difference Treated Vs. Control” value ([2]; myelinated axons proximal, light microscopy, One Month) was “+7%”, the “% Difference Treated vs. Control” value ([2]; myelinated axons proximal, light microscopy, One Week) was “+16%” and the “% Difference Treated vs. Control” value ([2]; myelinated axons proximal, light microscopy, Six Month) was “+30%”. For the same compound, the “% Difference” value ([2]; myelinated axons proximal, light microscopy, Three Month) was “+46%”, the “% Difference” value ([2]; myelinated axons proximal, light microscopy, Two Month) was “+8%” and the “#Myelinated Axons” value ([3]; One month treated) was 1.2 Per 200 μm^2 of Area. The “#Unmyelinated Axons” value ([3]; One month treated) was 8 Per 200 μm^2 of Area, the “#Myelinated Axons” value ([3]; One week treated) was 4.25 Per 200 μm^2 of Area and the “#Unmyelinated Axons” value ([3]; One week treated) was 11.0 Per 200 μm^2 of Area. For the same compound, the “#Myelinated Axons” value ([3]; Six Month Treated) was 5 Per 200 μm^2 of Area, the “#Unmyelinated Axons” value ([3]; Six Month Treated) was 8.7 Per 200 μm^2 of Area and the “#Myelinated Axons” value ([3]; Three month treated) was 9.0 Per 200 μm^2 of Area. The “#Unmyelinated Axons” value ([3]; Three month treated) was 12.9 Per 200 μm^2 of Area, the “#Myelinated Axons” value ([3]; Two Month Treated) was 6 Per 200 μm^2 of Area and the “#Unmyelinated Axons” value ([3]; Two Month Treated) was 18 Per 200 μm^2 of Area.

Source: EP0100673A2, “A method of enhancing neurofiber regrowth” (THE RESEARCH FOUNDATION OF STATE UNIVERSITY OF NEW YORK, priority 1982, dated 1984)
